The text below walks through data of PubChem BioAssay (NCI).

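Method: 48-hour compound exposure of cells in 96-well plates, five concentrations, linear interpolation of endpoints. Abbreviation: GI50, concentration required for 50% inhibition of growth. TGI: total growth inhibition.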

As a reminder, the TGI is the concentration at which net growth stops. Higher therefore signals less potent growth arrest. The term GI50 denotes the concentration at which growth is held to half of that of the control.

Holding throughout (assay): DTP human tumour cell line panel, 48 h
Assay [1] concerns HT29 colon.
For assay [2], the system named is UACC-257 melanoma.
The subject of assay [3] is K-562 leukemia.
Assay [4] relates to UACC-62 melanoma.
The subject of assay [5] is SF-295 CNS.
Assay [6] has as its system SW-620 colon.
Assay [7] has as its system SNB-19 CNS.
The subject of assay [8] is COLO 205 colon.
In assay [9] the test system is EKVX NSCLC.
In assay [10] the test system is CAKI-1 renal.

For the molecule `COc1cc(C(=C2SCCS2)c2nccc3cc(OC)c(OC)cc23)c([N+](=O)[O-])cc1OC`, the TGI in assay [1], in assay [2], in [3], in [4], in [5] and in [6] was > 100 µM throughout. Also, the TGI in assay [7], in [8] and in [9] was > 100 µM throughout.
`O=c1cc(-c2ccc[nH]2)[nH]c2cc3c(cc12)OCO3`: the concentration for total growth inhibition (TGI) in assay [1], in assay [2], in [3], in assay [4], in [5] and in [6] was > 100 µM throughout. Moreover, the TGI in assay [7] was > 100 µM; in [8], 60.3 µM; in assay [9] it was > 100 µM. In addition, in assay [5], the GI50 was 33.8 µM.
Consider `CC(=O)C1C(=O)C(=O)N(c2ccc([N+](=O)[O-])cc2Cl)C1=O` (stereo unspecified), for which the TGI in assay [1], in assay [2], in assay [10], in assay [4], in [5] and in assay [6] was > 100 µM in each case. Besides, the TGI in assay [7], in assay [8] and in assay [9] was > 100 µM each time.
For `O=C(Cc1nc2ccccc2s1)C(=O)Nc1ccc(Cl)cc1Cl`, the TGI in assay [1], in assay [2], in assay [3], in assay [5], in assay [6] and in assay [7] was > 100 µM in each case. Moreover, the TGI in assay [8] is > 100 µM.
Turning to `CC(C)(C)[Si](Nc1ccccc1)(c1ccccc1)c1ccccc1`, the TGI in assay [1] was 28.7 µM; in assay [2], 28.4 µM; in [3], 25.1 µM; in assay [4], 22.7 µM; in assay [5] it was 26 µM; in assay [6] it was 33.6 µM. For the same molecule, the TGI in [7] worked out at 27.1 µM; in assay [8], 29.4 µM; in assay [9] it was 30.3 µM.
`CCCCCCCCCCCCCCCCCCOCC1(COP(=O)([O-])OCC[N+](C)(C)C)CCCO1` (stereo unspecified): the TGI in assay [1] was 12.4 µM; in assay [2] it was 27.3 µM; in assay [3], 31.7 µM; in assay [4], 21.4 µM; in assay [5], 6.84 µM; in [7], 11.1 µM. In addition, the TGI in assay [8] amounted to 3.63 µM.
As to `C/C=C/COc1cc(NC(=S)c2ccoc2C)ccc1OC`, the TGI in [1], in [2], in assay [10], in assay [4], in assay [5] and in assay [6] was > 100 µM in each case. Further, the TGI in assay [7], in assay [8] and in assay [9] was > 100 µM each time.
As for `CN(C)C(=S)/N=c1\ssc(=S)n1Cc1ccccn1`, the total growth inhibition concentration (TGI) in [1] was > 100 µM; in [2], > 100 µM; in assay [10], > 100 µM; in assay [4], 11 µM; in assay [5] it was > 65.7 µM; in [6] it was > 100 µM. The figures for the TGI in [7], in assay [8] and in assay [9] were > 100 µM, 21.4 µM and > 100 µM, respectively.
`CCCCCCCCCCCCOC(=S)NC`: the total growth inhibition concentration (TGI) in assay [1] is 33.1 µM; in assay [2], 42.2 µM; in assay [3] it was 45.9 µM; in [4] it was 31 µM; in assay [5], 43.9 µM; in assay [6], 32.6 µM. Besides, the TGI was > 100 µM in assay [7] and 36.7 µM in assay [9].
As to `Cc1ccc(C(=O)NC(C)C)cc1N=NN(C)C`, the TGI in assay [1], in [2], in [10], in [4], in [5] and in [6] was > 100 µM throughout. Further, the TGI in assay [7] and in assay [9] was > 100 µM in each case.
Consider `COc1cc(C(=O)/C=C/c2c(-c3cccs3)nc3ccccn23)cc(OC)c1OC`, for which the GI50 in [1] is 2.09 µM; in [2] it was 1.88 µM; in [10], 2.31 µM; in assay [4], 1.61 µM; in assay [5], 2.24 µM; in assay [7], 2.1 µM. Further, the GI50 in assay [8] is 1.77 µM; in assay [9], 3.12 µM. Besides, the TGI in assay [1] was 4.19 µM; in [2], 4.46 µM; in assay [10] it was 8.14 µM; in assay [4] it was 3.57 µM; in assay [5] it was > 100 µM; in assay [7], 5.56 µM. Further, the TGI in [8] is 3.2 µM; in assay [9] it was > 100 µM.
For the molecule `COC(=O)C1=C2CO[C@@H]3C[C@H]4C(C)(C)CCC[C@]4(C)C(=CC1)[C@]23C`, the GI50 was 48.4 µM in assay [1]; 35.7 µM in [2]; 19.5 µM in assay [10]; 41.9 µM in assay [4]; 14.9 µM in [5]; 39.5 µM in [6]. Besides, the GI50 was 46.8 µM in [7], 28.2 µM in assay [8] and 45.5 µM in [9]. Further, the concentration for total growth inhibition (TGI) in assay [1] is > 100 µM; in assay [2], > 100 µM; in assay [10], 52.1 µM; in assay [4] it was > 100 µM; in assay [5], 37.6 µM; in assay [6], > 100 µM. In addition, the TGI in assay [7] is > 100 µM; in assay [8] it was 71 µM; in assay [9], > 100 µM.
With `ClC1=C(Cl)C(Cl)=C(Cl)C1=Cc1ccc(Cl)cc1Cl`, the GI50 in [1] is 0.33 µM; in assay [3], 0.341 µM; in assay [4], 0.192 µM; in assay [5], 0.733 µM; in assay [6] it was 0.272 µM; in assay [7], 0.811 µM. Further, the results for the GI50 in assay [8] and in [9] were 0.486 µM and 0.523 µM, respectively. In addition, the TGI stood at 6.4 µM in assay [1]; 2 µM in assay [3]; 0.495 µM in assay [4]; 3.08 µM in assay [5]; 0.717 µM in [6]; 2.93 µM in assay [7]. Further, the TGI in assay [8] stood at 2.25 µM; in assay [9] it was 4.37 µM.
For the molecule `CN(/C(=N\O)c1ccccc1)c1ccccc1`, the TGI in assay [1] is 87.5 µM; in assay [2], > 100 µM; in assay [10] it was > 100 µM; in assay [5] it was 43.4 µM; in assay [6], > 100 µM; in assay [7], 90.3 µM. Also, the results for the TGI in [8] and in [9] were > 100 µM and 74.3 µM, respectively.
Regarding `O=C1/C(=C/c2ccc(C(F)(F)F)cc2)COc2ccc(O)cc21`, the GI50 is 2.03 µM in assay [1]; 8.06 µM in assay [2]; 1.74 µM in [10]; 2.36 µM in assay [4]; 12.1 µM in [5]; 1.71 µM in assay [6]. For the same molecule, the GI50 in [7] is 1.91 µM; in assay [8], 2.47 µM; in assay [9], 10.7 µM. Besides, the TGI in assay [1] amounted to 4.32 µM; in assay [2] it was 20.9 µM; in assay [10] it was 3.85 µM; in assay [4], 6.84 µM; in assay [5], 24.9 µM; in assay [6], 3.4 µM. Also, the figures for the TGI in [7], in assay [8] and in [9] were 3.98 µM, 5.83 µM and 22.5 µM, respectively.
Turning to `O=C(Nc1cc([N+](=O)[O-])cc([N+](=O)[O-])c1)OC1C2CCC1C1OC1C2` (stereo unspecified), the TGI in assay [2], in assay [3], in assay [4], in assay [5], in [6] and in assay [7] was > 50 µM in each case. Besides, the TGI in [8] and in assay [9] was > 50 µM each time.
`Nc1n[n+]([O-])c2cnccc2[n+]1[O-]`: the TGI in assay [1] was > 100 µM; in assay [2] it was 77.9 µM; in assay [10], > 100 µM; in [4] it was 84.9 µM; in assay [5], > 100 µM; in assay [6], > 100 µM. Besides, the TGI in assay [7] and in assay [8] was > 100 µM each time.
Consider `N=C(N)Cn1cnc2ccccc21`, for which the TGI in assay [2], in assay [3], in assay [4], in assay [5], in assay [6] and in [7] was > 100 µM throughout. Besides, the TGI in assay [8] and in [9] was > 100 µM throughout.
Take `CC(C)(C)n1cc(-c2ccnc(NCCCNS(=O)(=O)c3ccc(Cl)cc3)c2)c(-c2cccc(O)c2)n1`: the GI50 in [2] is 1.86 µM; in assay [10], 2.06 µM; in assay [4] it was 1.65 µM; in [5] it was 1.79 µM; in [6] it was 1.77 µM; in assay [7], 2.18 µM. Moreover, the GI50 in [8] is 1.66 µM; in assay [9] it was 2.04 µM. In addition, the TGI came out at 3.81 µM in assay [2]; 5.35 µM in [10]; 3.29 µM in assay [4]; 3.37 µM in assay [5]; 3.56 µM in assay [6]; 4.96 µM in assay [7]. The TGI in assay [8] amounted to 3.39 µM; in [9] it was 5.36 µM.
